Values quoted from earlier work as cited in publication PMC2796340 (Journal of the American Chemical Society, 2009).

Molecular target: T1, Gal80 (Saccharomyces cerevisiae, UniProt P04387)
T1 sequence (P04387 1-435): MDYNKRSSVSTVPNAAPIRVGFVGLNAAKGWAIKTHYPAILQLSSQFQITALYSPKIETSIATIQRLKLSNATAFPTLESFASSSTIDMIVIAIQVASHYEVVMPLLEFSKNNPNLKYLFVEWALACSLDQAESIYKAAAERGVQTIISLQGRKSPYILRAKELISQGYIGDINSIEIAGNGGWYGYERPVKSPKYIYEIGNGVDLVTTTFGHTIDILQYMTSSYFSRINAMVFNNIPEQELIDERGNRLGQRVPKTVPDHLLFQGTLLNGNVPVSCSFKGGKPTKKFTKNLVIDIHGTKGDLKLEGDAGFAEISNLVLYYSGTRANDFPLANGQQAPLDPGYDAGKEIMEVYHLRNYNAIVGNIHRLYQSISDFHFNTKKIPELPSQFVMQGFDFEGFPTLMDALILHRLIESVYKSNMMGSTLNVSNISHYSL
Details: synthetic Gal4 activation domain peptide; ref [20]

Sequence: MDQTAYNAFGITTGMFNTTTMD DVYNYLFDDEDT [Gal4 AD]
- binding to the Gal80 repressor site: binds the Gal80 repressor site with high affinity
